pEC50: −log10 of the molar value. *1 amine or outer side, *2 acyl side, *3 side chain or, on linkers, in order; H or OH if unused. Where a SMILES comes first, the peptide text is derived from it. Side-chain parts run from the residue outwards. [ ]: non-standard residue; d: D form. The star is where a group is joined. C16 diacid = O=C(O)CCCCCCCCCCCCCCC(=O)*; γGlu = O=C(O)[C@H](CCC(=O)[*:2])N[*:1]; NMeI = CC[C@H](C)[C@H](NC)C(=O)O; Api = NC1(C(=O)O)CCNCC1; Aib = CC(C)(N)C(=O)O
Tests used:
[1] = biological target: T1, CFR1R receptor (Homo sapiens, UniProt P34998); experiment: Activity at anti-target CFR1R receptor, cAMP assay in CRF1R-overexpression CHO-K1 cells; format: cell-based; conditions: 100% = Sauvagine at 100 nM; for pEC50: cAMP
T1 construct: host or cells: CHO-K1 (clone 2)
T1 sequence (P34998 24-415): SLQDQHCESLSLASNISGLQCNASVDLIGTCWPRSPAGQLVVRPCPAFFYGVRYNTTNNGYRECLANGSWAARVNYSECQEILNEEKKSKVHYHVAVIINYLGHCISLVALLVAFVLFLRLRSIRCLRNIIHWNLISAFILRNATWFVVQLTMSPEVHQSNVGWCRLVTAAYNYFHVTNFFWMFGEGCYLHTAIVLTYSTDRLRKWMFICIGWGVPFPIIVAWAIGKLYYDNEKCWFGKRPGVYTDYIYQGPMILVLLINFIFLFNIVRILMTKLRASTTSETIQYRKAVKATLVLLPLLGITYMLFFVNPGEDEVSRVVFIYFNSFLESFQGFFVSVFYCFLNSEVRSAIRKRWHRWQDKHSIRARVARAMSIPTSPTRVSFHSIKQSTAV
Summary of the method: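 Uses frozen stocks of CHO-K1 clone 2 cells overexpressing human CRF1R, plated at 4000 cells/well final, with cAMP measured by the same protocol as the TeloHAEC line. Full-activation control: 100 nM Sauvagine.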

[2] = biological target: T2, human CRF2a receptor (Homo sapiens, UniProt Q13324); experiment: Activity at human CRF2a receptor, cAMP functional assay in TeloHEAC cells; format: cell-based; conditions: TeloHEAC cells stably expressing human CRF2a receptor, relative to urocortin 2 (100 nM = 100%)
T2 construct: expressed in transfected cells; host or cells: TeloHEAC cells
T2 sequence (Q13324 1-411): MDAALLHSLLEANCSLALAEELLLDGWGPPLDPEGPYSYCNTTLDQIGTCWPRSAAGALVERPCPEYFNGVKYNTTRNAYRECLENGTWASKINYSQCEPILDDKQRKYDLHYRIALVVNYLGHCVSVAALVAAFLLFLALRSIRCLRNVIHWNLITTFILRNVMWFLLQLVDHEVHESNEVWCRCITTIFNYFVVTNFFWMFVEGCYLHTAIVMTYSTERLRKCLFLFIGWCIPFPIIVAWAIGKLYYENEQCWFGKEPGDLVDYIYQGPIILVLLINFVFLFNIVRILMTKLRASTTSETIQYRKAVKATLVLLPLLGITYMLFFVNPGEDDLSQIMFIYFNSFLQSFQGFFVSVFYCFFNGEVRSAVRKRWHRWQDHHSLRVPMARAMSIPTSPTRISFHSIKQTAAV
Summary of the method: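 cAMP accumulation was measured by HTRF 665/620 nm ratio after 30 min at 37° C compound exposure (16 twofold dilutions) of CRF2a-expressing TeloHEAC cells, 10000/well, in HEPES-buffered HBSS plus IBMX. Activity was normalised to urocortin 2 at 100 nM (100%), and EC50 was the concentration giving half-maximal activation.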

| Emax (% I) [1] | pEC50 [2] | pEC50 [1] | SMILES |
| --- | --- | --- | --- |
| 53 % I | 9.92 | – | CC[C@H](C)[C@H](N)C(=O)N[C@H](C(=O)N[C@@H](CC(C)C)C(=O)N[C@@H](CO)C(=O)N[C@@H](CC(C)C)C(=O)N[C@@H](CC(=O)O)C(=O)N[C@@H](C(=O)N1CCC[C@H]1C(=O)N[C@H](C(=O)N[C@@H](CCCCN)C(=O)N[C@@H](CC(C)C)C(=O)N[C@@H](CCCCNC(=O)CC[C@H](NC(=O)CCCCCCCCCCCCCCC(=O)O)C(=O)O)C(=O)N[C@@H](CCC(N)=O)C(=O)N[C@H](C(=O)N[C@@H](CC(C)C)C(=O)N[C@@H](CC(C)C)C(=O)N[C@@H](CCCCN)C(=O)N[C@@H](CCC(N)=O)C(=O)N[C@@H](CCC(=O)O)C(=O)N[C@@H](CCCNC(=N)N)C(=O)N[C@@H](CCC(N)=O)C(=O)N[C@@H](CCCCN)C(=O)N[C@@H](CCCCN)C(=O)N[C@@H](CCC(N)=O)C(=O)N[C@@H](CCCNC(=N)N)C(=O)N[C@@H](CCC(=O)O)C(=O)N[C@@H](CCC(N)=O)C(=O)N[C@@H](C)C(=O)N[C@@H](CCC(=O)O)C(=O)N[C@@H](CCCCN)C(=O)N[C@@H](CC(N)=O)C(=O)N[C@@H](CCCCN)C(=O)N[C@@H](CCC(N)=O)C(=O)N[C@H](C(=O)N[C@@H](CC(C)C)C(=O)N[C@@H](CCC(=O)O)C(=O)N[C@@H](CCC(N)=O)C(=O)N[C@H](C(N)=O)C(C)C)[C@@H](C)CC)[C@@H](C)CC)[C@@H](C)CC)C(C)C)C(C)C [compound 151] (H-IVLSLD[dV]PIKLK([γGlu-C16 diacid])QILLKQERQKKQREQAEKNKQILEQV-NH2) |
| 25 % I | 9.29 | < 6.60 | CC[C@H](C)[C@H](NC(C)=O)C(=O)N[C@H](C(=O)N[C@@H](CC(C)C)C(=O)N[C@@H](CO)C(=O)N[C@@H](CC(C)C)C(=O)N[C@@H](CC(=O)O)C(=O)N[C@@H](C(=O)N1CCC[C@H]1C(=O)N[C@H](C(=O)N[C@@H](CCCCN)C(=O)N[C@@H](CC(C)C)C(=O)N[C@@H](CCCCNC(=O)CC[C@H](NC(=O)CCCCCCCCCCCCCCC(=O)O)C(=O)O)C(=O)N[C@@H](CCCCN)C(=O)N[C@H](C(=O)N[C@@H](CC(C)C)C(=O)N[C@@H](CC(C)C)C(=O)N[C@@H](CCC(=O)O)C(=O)N[C@@H](CCC(N)=O)C(=O)N[C@@H](CCC(=O)O)C(=O)N[C@@H](CCCCN)C(=O)N[C@@H](CCC(N)=O)C(=O)N[C@@H](CCCCN)C(=O)N[C@@H](C)C(=O)N[C@@H](CCC(N)=O)C(=O)N[C@@H](CCCNC(=N)N)C(=O)N[C@@H](CCC(=O)O)C(=O)N[C@@H](CCC(N)=O)C(=O)N[C@@H](C)C(=O)N[C@@H](CCC(=O)O)C(=O)N[C@H](C(=O)N[C@@H](CC(N)=O)C(=O)NC1(C(=O)N[C@@H](CCC(N)=O)C(=O)N[C@H](C(=O)N[C@@H](CC(C)C)C(=O)N[C@@H](C)C(=O)N[C@@H](CCC(N)=O)C(=O)N[C@H](C(N)=O)C(C)C)[C@@H](C)CC)CCNCC1)[C@@H](C)O)[C@@H](C)CC)[C@@H](C)CC)C(C)C)C(C)C [compound 152] (Ac-IVLSLD[dV]PIKLK([γGlu-C16 diacid])KILLEQEKQKAQREQAETN[Api]QILAQV-NH2) |
| 22 % I | 9.39 | < 6.60 | CC[C@H](C)[C@H](NC(C)=O)C(=O)N[C@H](C(=O)N[C@@H](CC(C)C)C(=O)N[C@@H](CO)C(=O)N[C@@H](CC(C)C)C(=O)N[C@@H](CC(=O)O)C(=O)N[C@@H](C(=O)N1CCC[C@H]1C(=O)N[C@H](C(=O)N[C@@H](CCCCN)C(=O)N[C@@H](CC(C)C)C(=O)N[C@@H](CCCCNC(=O)CC[C@H](NC(=O)CCCCCCCCCCCCCCC(=O)O)C(=O)O)C(=O)N[C@@H](CCCCN)C(=O)N[C@H](C(=O)N[C@@H](CC(C)C)C(=O)N[C@@H](CC(C)C)C(=O)N[C@@H](CCC(=O)O)C(=O)N[C@@H](CCC(N)=O)C(=O)N[C@@H](CCC(=O)O)C(=O)N[C@@H](CCCCN)C(=O)N[C@@H](CCC(N)=O)C(=O)N[C@@H](CCCCN)C(=O)NC(C)(C)C(=O)N[C@@H](CCC(N)=O)C(=O)N[C@@H](CCCNC(=N)N)C(=O)N[C@@H](CCC(=O)O)C(=O)N[C@@H](CCC(N)=O)C(=O)N[C@@H](C)C(=O)N[C@@H](CCC(=O)O)C(=O)N[C@H](C(=O)N[C@@H](CC(N)=O)C(=O)NC1(C(=O)N[C@@H](CCC(N)=O)C(=O)N[C@H](C(=O)N[C@@H](CC(C)C)C(=O)N[C@@H](C)C(=O)N[C@@H](CCC(N)=O)C(=O)N[C@H](C(N)=O)C(C)C)[C@@H](C)CC)CCNCC1)[C@@H](C)O)[C@@H](C)CC)[C@@H](C)CC)C(C)C)C(C)C [compound 153] (Ac-IVLSLD[dV]PIKLK([γGlu-C16 diacid])KILLEQEKQK[Aib]QREQAETN[Api]QILAQV-NH2) |
| 24 % I | 9.28 | < 6.60 | CC[C@H](C)[C@H](NC)C(=O)N[C@H](C(=O)N[C@@H](CC(C)C)C(=O)N[C@@H](CO)C(=O)N[C@@H](CC(C)C)C(=O)N[C@@H](CC(=O)O)C(=O)N[C@@H](C(=O)N1CCC[C@H]1C(=O)N[C@H](C(=O)N[C@@H](CCCCN)C(=O)N[C@@H](CC(C)C)C(=O)N[C@@H](CCCCNC(=O)CC[C@H](NC(=O)CCCCCCCCCCCCCCC(=O)O)C(=O)O)C(=O)N[C@@H](CCCCN)C(=O)N[C@H](C(=O)N[C@@H](CC(C)C)C(=O)N[C@@H](CC(C)C)C(=O)N[C@@H](CCC(=O)O)C(=O)N[C@@H](CCC(N)=O)C(=O)N[C@@H](CCC(=O)O)C(=O)N[C@@H](CCCCN)C(=O)N[C@@H](CCC(N)=O)C(=O)N[C@@H](CCCCN)C(=O)N[C@@H](C)C(=O)N[C@@H](CCC(N)=O)C(=O)N[C@@H](CCCNC(=N)N)C(=O)N[C@@H](CCC(=O)O)C(=O)N[C@@H](CCC(N)=O)C(=O)N[C@@H](C)C(=O)N[C@@H](CCC(=O)O)C(=O)N[C@H](C(=O)N[C@@H](CC(N)=O)C(=O)NC1(C(=O)N[C@@H](CCC(N)=O)C(=O)N[C@H](C(=O)N[C@@H](CC(C)C)C(=O)N[C@@H](C)C(=O)N[C@@H](CCC(N)=O)C(=O)N[C@H](C(N)=O)C(C)C)[C@@H](C)CC)CCNCC1)[C@@H](C)O)[C@@H](C)CC)[C@@H](C)CC)C(C)C)C(C)C [compound 154] (H-[NMeI]VLSLD[dV]PIKLK([γGlu-C16 diacid])KILLEQEKQKAQREQAETN[Api]QILAQV-NH2) |
| 26 % I | 9.29 | < 6.60 | CC[C@H](C)[C@H](NC)C(=O)N[C@H](C(=O)N[C@@H](CC(C)C)C(=O)N[C@@H](CO)C(=O)N[C@@H](CC(C)C)C(=O)N[C@@H](CC(=O)O)C(=O)N[C@@H](C(=O)N1CCC[C@H]1C(=O)N[C@H](C(=O)N[C@@H](CCCCN)C(=O)N[C@@H](CC(C)C)C(=O)N[C@@H](CCCCNC(=O)CC[C@H](NC(=O)CCCCCCCCCCCCCCC(=O)O)C(=O)O)C(=O)N[C@@H](CCCCN)C(=O)N[C@H](C(=O)N[C@@H](CC(C)C)C(=O)N[C@@H](CC(C)C)C(=O)N[C@@H](CCC(=O)O)C(=O)N[C@@H](CCC(N)=O)C(=O)N[C@@H](CCC(=O)O)C(=O)N[C@@H](CCCCN)C(=O)N[C@@H](CCC(N)=O)C(=O)N[C@@H](CCCCN)C(=O)NC(C)(C)C(=O)N[C@@H](CCC(N)=O)C(=O)N[C@@H](CCCNC(=N)N)C(=O)N[C@@H](CCC(=O)O)C(=O)N[C@@H](CCC(N)=O)C(=O)N[C@@H](C)C(=O)N[C@@H](CCC(=O)O)C(=O)N[C@H](C(=O)N[C@@H](CC(N)=O)C(=O)NC1(C(=O)N[C@@H](CCC(N)=O)C(=O)N[C@H](C(=O)N[C@@H](CC(C)C)C(=O)N[C@@H](C)C(=O)N[C@@H](CCC(N)=O)C(=O)N[C@H](C(N)=O)C(C)C)[C@@H](C)CC)CCNCC1)[C@@H](C)O)[C@@H](C)CC)[C@@H](C)CC)C(C)C)C(C)C [compound 155] (H-[NMeI]VLSLD[dV]PIKLK([γGlu-C16 diacid])KILLEQEKQK[Aib]QREQAETN[Api]QILAQV-NH2) |

Source: patent US20260001928A1 (CORTERIA PHARMACEUTICALS, priority 2022, published 2026)
